Laboratory results published in patent US8859569B2, “Substituted annellated pyrimidines and use thereof” (Bayer Pharma Aktiengesellschaft, priority 2011, dated 2014).
pIC50: −log10 of the molar value.

Legend:
[1] = molecular target: T1, recombinant guanylate cyclase reporter cell line (Rattus norvegicus, UniProt P19686+P20595); experiment: Action on recombinant guanylate cyclase reporter cell line; type: cell-based
T1 construct: expressed in transfected cells
T1 sequence (P20595 1-619): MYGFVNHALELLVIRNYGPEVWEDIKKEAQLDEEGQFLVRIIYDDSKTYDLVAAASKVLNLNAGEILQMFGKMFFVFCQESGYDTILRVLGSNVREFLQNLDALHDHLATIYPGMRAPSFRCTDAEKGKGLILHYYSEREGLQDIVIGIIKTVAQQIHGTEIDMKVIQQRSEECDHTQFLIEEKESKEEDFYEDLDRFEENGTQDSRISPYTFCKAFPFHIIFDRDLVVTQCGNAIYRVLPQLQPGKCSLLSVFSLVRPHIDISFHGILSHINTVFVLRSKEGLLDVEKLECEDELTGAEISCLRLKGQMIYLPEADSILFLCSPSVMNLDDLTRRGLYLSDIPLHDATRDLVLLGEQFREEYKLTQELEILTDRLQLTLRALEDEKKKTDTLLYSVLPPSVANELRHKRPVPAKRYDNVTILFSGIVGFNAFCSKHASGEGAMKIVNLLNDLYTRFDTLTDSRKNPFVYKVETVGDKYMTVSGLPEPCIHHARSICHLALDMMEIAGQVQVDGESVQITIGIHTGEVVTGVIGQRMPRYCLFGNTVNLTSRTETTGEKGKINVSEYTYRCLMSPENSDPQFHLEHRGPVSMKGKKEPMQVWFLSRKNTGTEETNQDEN
T1 sequence (P19686 1-690): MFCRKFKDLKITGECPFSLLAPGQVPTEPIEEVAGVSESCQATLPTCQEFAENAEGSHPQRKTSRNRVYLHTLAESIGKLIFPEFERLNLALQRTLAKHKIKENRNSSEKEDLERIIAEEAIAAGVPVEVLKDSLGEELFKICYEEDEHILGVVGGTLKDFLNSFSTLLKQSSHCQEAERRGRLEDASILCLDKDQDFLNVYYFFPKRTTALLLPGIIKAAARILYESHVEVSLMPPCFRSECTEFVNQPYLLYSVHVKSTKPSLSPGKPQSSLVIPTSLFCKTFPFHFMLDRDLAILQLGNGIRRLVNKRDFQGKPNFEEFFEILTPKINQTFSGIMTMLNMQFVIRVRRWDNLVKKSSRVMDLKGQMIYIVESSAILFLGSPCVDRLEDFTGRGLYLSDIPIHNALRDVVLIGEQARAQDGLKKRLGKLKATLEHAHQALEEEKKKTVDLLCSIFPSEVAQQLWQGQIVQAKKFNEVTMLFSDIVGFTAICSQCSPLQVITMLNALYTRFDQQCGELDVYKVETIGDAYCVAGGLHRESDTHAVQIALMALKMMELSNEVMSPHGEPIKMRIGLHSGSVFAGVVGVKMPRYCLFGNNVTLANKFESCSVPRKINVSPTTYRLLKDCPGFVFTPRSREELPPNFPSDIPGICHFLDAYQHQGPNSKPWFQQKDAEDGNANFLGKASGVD
Procedure: B-2. Action on Recombinant Guanylate Cyclase Reporter Cell Line
The cellular action of the compounds according to the invention is determined on a recombinant guanylate cyclase reporter cell line, as described in F. Wunder et al., Anal. Biochem. 339, 104-112 (2005).

aorta rings = experiment: Vessel-relaxing action in vitro (aorta rings, phenylephrine contraction); settings: Oryctolagus cuniculus, concentration required to reduce phenylephrine-induced contraction of rabbit aorta rings by 50%
Summary of the method: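 Rabbit aortic rings 1.5 mm wide were held under preload in carbogen-gassed Krebs-Henseleit at 37 °C and contracted with cumulative phenylephrine. Test substance was added in rising doses on successive passes, each compared with the preceding control contraction. IC50 is the concentration that halves contraction, with 0.1% DMSO in the bath.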

[2] = molecular target: T2, human phosphodiesterase 5 (PDE-5) (Homo sapiens, UniProt O76074); experiment: Inhibition of human phosphodiesterase 5 (PDE-5), SPA assay; type: biochemical; settings: PDE-5 preparation from human platelets, [8-3H]cGMP substrate
T2 construct: PDE-5 preparations are obtained from human platelets by lysis; from tissue; host or cells: human platelets
Summary of the method: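 Scintillation proximity read-out with yttrium beads after 60 min room-temperature hydrolysis of 0.025 μCi [8-3H]cGMP, pH 7.5 Tris/MgCl2/EDTA buffer. Enzyme is a human platelet PDE-5 fraction, diluted to keep substrate turnover below 70%. Test concentrations 4 μM–0.0018 μM final; IC50 from inhibition curves.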

Row | Structure (SMILES) | MEC (minimal effective concentration) [1] | pIC50 (aorta rings) | pIC50 [2]
1 | CCOc1nc(-c2nn(Cc3ccccc3F)c3ncccc23)nc2c1C(C)(C)C(=O)N2 [Example 112, 4-Ethoxy-2-[1-(2-fluorobenzyl)-1H-pyrazolo[3,4-b]pyridin-3-yl]-5,5-dimethyl-5,7-dihydro-6H-pyrrolo[2,3-d]pyrimidin-6-one] | 0.1 μm | 5.79 | 6.68
2 | CC1(C)C(=O)Nc2nc(-c3nn(Cc4ccccc4F)c4ncccc34)nc(OCC3CC3)c21 [Example 113, 4-(Cyclopropylmethoxy)-2-[1-(2-fluorobenzyl)-1H-pyrazolo[3,4-b]pyridin-3-yl]-5,5-dimethyl-5,7-dihydro-6H-pyrrolo[2,3-d]pyrimidin-6-one] | 0.1 μm | 5.71 | 6.92
3 | CC1(C)C(=O)Nc2nc(-c3nn(Cc4ccccc4F)c4ncccc34)nc(OCC(F)(F)F)c21 [Example 115, 2-[1-(2-Fluorobenzyl)-1H-pyrazolo[3,4-b]pyridin-3-yl]-5,5-dimethyl-4-(2,2,2-trifluoroethoxy)-5,7-dihydro-6H-pyrrolo[2,3-d]pyrimidin-6-one] | 0.3 μm | 5.79 | 6.60
4 | CC1(C)C(=O)Nc2nc(-c3nn(Cc4ccccc4F)c4ncccc34)nc(OCCO)c21 [Example 117, 2-[1-(2-Fluorobenzyl)-1H-pyrazolo[3,4-b]pyridin-3-yl]-4-(2-hydroxyethoxy)-5,5-dimethyl-5,7-dihydro-6H-pyrrolo[2,3-d]pyrimidin-6-one] | 0.03 μm | 7.42 | 7.28
